In data set [1] the target is acetylcholinesterase (Electrophorus electricus, UniProt O42275). Briefly: Ellman assay for acetylcholinesterase inhibition, IC50 (eel-derived enzyme). In kind it is biochemical, electric eel. The source says: (§1) Ortho-, meta-, and p-chloromethylphenyl choline carbonates are all examples of inhibitors of acetylcholinesterase in accordance with the present invention. Employing the Ellman assay for acetylcholinesterase inhibition [G. L. Ellman, K. D. Courtney, V. Andrews, Jr., and R. M. Featherstone, Biochem. Pharmacol., vol.
From such competitive inhibitor measurements it was possible to determine an IC50 (proportionate amount necessary to reduce acetylcholinesterase activity by 50%) for various inhibitors [meaning those containing the CH2 X group] in this patent. All IC50 values fell between 8 and 200 uM. The exact value varied with the source of the acetylcholinesterase and quantitative measurements were performed on electric eel and human erythrocyte enzyme. Values reported below are with eel-derived enzyme. [drawing 5] where
(Ellman's reagent forms a yellow product with free thiols.)

Data set [2] has as its system acetylcholinesterase. Briefly: Time course inactivation of acetylcholinesterase. Format: biochemical. The source says:
The synthetic preparation of the hydrochloride salt of the tertiary amine inhibitors involves only slight modifications of the general method.

Data set [3] is described as follows: Solubility, hygroscopicity and stability. In kind it is physicochemical.
In data set [4] the target is acetylcholinesterase. Briefly: Inhibition and inactivation kinetics of acetylcholinesterase, substrate protection. Format: biochemical. The note with it: for Protection against inactivation by substrate acetylcholine: equimolar concentrations of acetylcholine and inhibitor (10 μM each), pre-incubation state.
From the text: as §1
p-Chloromethylphenyl choline carbonate iodide salt is an example of an inhibitor of acetylcholinesterase in accordance with the present invention.

The conditions of data set [5]: cited from earlier work.
The target in data set [6] is acetylcholinesterase. Briefly: Ellman assay for acetylcholinesterase inhibition (enzyme source not given). Format: biochemical. The note with it: enzyme source not stated.
From the text: as §1

Structures can show the parent of a compound that is named as a salt. Where two headings read alike, the source gives them in different places.

One may read the IC50 as the point on the concentration scale where inhibition reaches its midpoint. As a reminder, the Km is the concentration of substrate that gives half-maximal velocity.

Chain of acetylcholinesterase (Electrophorus electricus, UniProt O42275) (O42275 24-633): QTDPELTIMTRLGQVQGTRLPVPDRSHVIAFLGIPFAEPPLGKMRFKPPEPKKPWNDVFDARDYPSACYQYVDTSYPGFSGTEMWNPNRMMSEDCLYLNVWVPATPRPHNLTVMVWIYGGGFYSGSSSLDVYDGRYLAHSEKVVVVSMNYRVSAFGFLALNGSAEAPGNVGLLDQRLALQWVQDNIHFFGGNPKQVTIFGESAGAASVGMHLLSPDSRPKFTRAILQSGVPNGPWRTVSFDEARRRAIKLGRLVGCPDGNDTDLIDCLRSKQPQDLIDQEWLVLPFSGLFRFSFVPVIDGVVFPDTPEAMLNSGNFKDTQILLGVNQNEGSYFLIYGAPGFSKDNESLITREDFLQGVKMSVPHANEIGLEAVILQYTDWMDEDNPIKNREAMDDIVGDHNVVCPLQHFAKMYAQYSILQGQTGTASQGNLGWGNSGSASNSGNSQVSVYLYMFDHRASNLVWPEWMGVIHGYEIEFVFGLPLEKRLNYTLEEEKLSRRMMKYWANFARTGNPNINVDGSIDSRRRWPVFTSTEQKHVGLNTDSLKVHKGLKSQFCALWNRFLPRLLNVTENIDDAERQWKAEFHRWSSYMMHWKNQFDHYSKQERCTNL

Regarding `C[N+](C)(C)CCOC(=O)Oc1cccc(CCl)c1` [meta-CH2 Cl], in data set [1], the IC50 was 150 µM.
For the compound `CN(C)CCOC(=O)Oc1ccc(CCl)cc1`, the “Time course inactivation relative to p-chloromethylphenyl choline carbonate” value in data set [2] (compared with p-chloromethylphenyl choline carbonate) is “time course inactivation similar to that for the p-chloromethylphenyl choline carbonate”. Further, the “Potency relative to the quaternary compound” value in data set [2] (deduced from time course data) is given as “as potent as the quaternary compound”. Besides, the Inactivation of acetylcholinesterase in data set [2] (first 15 minutes at 40 uM concentration) is listed as 88%. Further, in data set [3], the Water solubility result is reported as “water- soluble”.
For the compound `C[N+](C)(C)CCOC(=O)Oc1ccc(CCl)cc1` [p-chloromethyl phenyl choline carbonate iodide salt], the IC50 in data set [1] (eel-derived enzyme, Ellman assay, read-out: IC50 (proportionate amount necessary to reduce acetylcholinesterase activity by 50%)) came to 40 µM. The Hygroscopicity entry in data set [3] (solid iodide salt) is recorded as “very hygroscopic”. Also, in data set [4] (25° C., pH=8 phosphate buffer), the Ki stood at 32 µM and the Michaelis-Menten constant (Km) was 144 µM. In addition, the “Inactivation mode / kinetics” value in data set [4] (below inhibitor concentrations of 40 μM) is on record as “time-dependent manner with pseudo first order kinetics”. Besides, the “Protection against inactivation by substrate acetylcholine” value in data set [4] is given as “offers partial protection against inactivation”. The “Protection against inactivation by substrate acetylcholine” value in data set [4] (listed as p-chloromethyl derivative) is “offers protection against inactivation”.
In the case of `CCOP(=O)(OCC)OP(=O)(OCC)OP(=O)(OCC)OP(=O)(OCC)OCC` (stereo not shown) [hexaethyltetraphosphate], in data set [5], the “Solubility in petroleum ethers and kerosene” value is reported as “general insolubility”; the “Solubility in water (known inhibitors)” value was “somewhat soluble in water”.
Compound `CC(C)(C)CCOC(=O)Oc1ccc(CCl)cc1` [3,3-dimethylbutyl p-chloromethylphenyl carbonate] showed an IC50 in data set [6] of 8 µM.
On to `C[N+](C)(C)CCOC(=O)Oc1ccccc1CCl` [ortho-CH2 Cl], for which, in data set [1], the IC50 turned out to be 100 µM.

The record behind these values is US5082964A, “Selective acetylcholinesterase inhibitors and methods of making and using same” (priority 1986, dated 1992).
